The text below walks through data of patent publication US20140121231A1, “PYRANOPYRIDONE INHIBITORS OF TANKYRASE” (Hoffmann-La Roche, Inc., priority 2012, published 2014).

The target in one assay is T1, Tankyrase 1 (TNKS1) (Homo sapiens, UniProt O95271).
T1 construct: His6-TNKS1, MW=28.2 KDa (construct: 1088-1327, 1266M)
Put plainly: μHTS-TNKS-IWR2 TR-FRET Binding Assay (Example 71), TNKS1. The procedure:
(§1) μHTS-TNKS-IWR2 TR-FRET Binding Assay (10 μL/well in BD1536-well plate, a single point)
(§2) Assay buffer 1a (AB1a) for TNKS dilution: 50 mM Tris, pH 7.4, 100 mM sodium chloride solution, 1 mM magnesium chloride solution, 1 mM DL-dithiothreitol solution, 0.2 mg/mL bovine serum albumin solution, 0.025% NP-40. Assay buffer 1b (AB 1b) for Biotin-IWR2 dilution: 50 mM Tris, pH 7.4, 100 mM sodium chloride solution, 1 mM magnesium chloride solution, 1 mM DL-dithiothreitol solution, 0.2 mg/mL bovine serum albumin solution, 0.05% NP-40 Assay buffer 1c (AB 1c) for compound dilution: 50 mM Tris, pH 7.4, 100 mM sodium chloride solution, 1 mM magnesium chloride solution, 1 mM DL-dithiothreitol solution, 0.2 mg/mL bovine serum albumin solution Assay buffer 2 (AB2) for Eu/APC: 50 mM Tris, pH 7.4, 100 mM sodium chloride solution, 1 mM magnesium chloride solution, 0.2 mg/mL bovine serum albumin solution
(§3) Transfer 3 μL/well of above solution (solution 1,2,3) to an empty assay plate (BD1536-well plate) as follows: TOTAL and cpd wells: Solution 1 (Biotin-IWR2): BLANK wells: Solution 2 (No Biotin-IWR2): POSITIVE CONTROL wells: Solution 3 (Biotin-IWR2XAV939) Transfer 3 μL/well of the above diluted compound solutions or compound dilution buffer to the above assay plate. Add 2 μL/well of 300 nM TNKS stock solution (4) to every well in the above assay plate. Centrifuge the assay plate at 2100 rpm for 2 min. Incubate the assay plate at 26° C. for 30 minutes. Add 2 μL/well 3.5 nMEu/50 nM APC solution (5) to every well in the above assay plate. Centrifuge the assay plate at 2100 rpm for 2 min. Incubate the assay plate at 26° C. for 60 min.
In general terms: In TR-FRET formats the signal depends on donor and acceptor labels being close together.

The target in another assay is T2, tankyrase 2 (His6-TNKS2) (Homo sapiens, UniProt Q9H2K2).
T2 construct: His6-tankyrase 2 (construct: 934-1166) (His6-TNKS2)
T2 sequence (Q9H2K2 934-1166): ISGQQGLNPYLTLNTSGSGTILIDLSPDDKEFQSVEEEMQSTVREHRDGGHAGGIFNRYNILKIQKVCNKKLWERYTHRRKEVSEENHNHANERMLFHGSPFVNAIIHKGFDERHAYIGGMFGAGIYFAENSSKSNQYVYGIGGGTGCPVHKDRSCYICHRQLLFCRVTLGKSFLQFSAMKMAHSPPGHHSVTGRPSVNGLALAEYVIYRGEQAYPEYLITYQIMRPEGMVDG
Put plainly: μHTS-TNKS-IWR2 TR-FRET Binding Assay (Example 71), TNKS2. Conditions: footnote 1: Tankyrase 1 and 2 inhibition assay in Example 71 (TR-FRET). The procedure: as §1
Biotin-4-((1S,2R,6S,7R)-3,5-Dioxo-4-aza-tricyclo[5.2.1.0*2,6*]dec-8-en-4-yl)-N-(4-methyl-quinolin-8-yl)-benzamide (Biotin-IWR2): 10 mM Biotin-IWR2 stock in DMSO, stored at −20° C. Positive control: 10 mM 2-(4-Trifluoromethyl-phenyl)-3,5,7,8-tetrahydro-thiopyrano[4,3-d]pyrimidin-4-one (XAV939) in DMSO, stored at −20° C.
as §2, §3

Assay [1] addresses T3, PARP1 (His6-PARP1, full length) (Homo sapiens, UniProt P09874).
T3 construct: His6-PARP1 (full length) can be substituted for His6-TNKS 1
Put plainly: TR-FRET Binding Assay (Example 71), PARP1. The note with it: TR-FRET assay of Example 71 with His6-PARP1. The method, then: as §1
Tankyrase 1 (TNKS1): 184.3 μM=5.2 mg/mL His6-TNKS1, MW=28.2 KDa (construct: 1088-1327, 1266M) in 20 mM Tris pH 8, 150 mM NaCl, 10% glycerol, and 0.5 mM TCEP. Alternatively, His6-tankyrase 2 (construct: 934-1166) (His6-TNKS2) or His6-PARP1 (full length) can be substituted for His6-TNKS 1.
as §2
Prepare Biotinylated IWR2 stock solution (3.33× stock) for TOTL and compound wells: 200 nM Biotin-IWR2 in 5% DMSO/AB1b buffer
Prepare BLANK well stock solution: 5% DMSO/AB1b buffer Prepare POSITIVE CONTROL well stock solution (3.33× stock): 200 nM XAV939 in 200 nM Biotin-IWR2/5% DMSO/AB1b buffer Prepare TNKS1 stock solution (5× stock): 300 nM TNKS in AB1a buffer. (Alternatively, use TNKS2 or PARP1 stock solutions.) Prepare Eu/APC stock solution (5× stock): 3.5 nM Eu-SA/50 nM APC-His6Ab in AB2 buffer.
Add 25 μL/well 1.5% DMSO/AB1c buffer in each compound well to the compound concentration at 74 μM in 8.8% DMSO/AB1c buffer or in the 2 μL DMSO CONTROL wells (BLANK, TOTAL and POSITIVE wells) in the compound plate. Transfer 3 μL/well of above solution (solution 1,2,3) to an empty assay plate (BD1536-well plate) as follows: TOTAL and cpd wells: Solution 1 (Biotin-IWR2): BLANK wells: Solution 2 (No Biotin-IWR2): POSITIVE CONTROL wells: Solution 3 (Biotin-IWR2XAV939) Transfer 3 μL/well of the above diluted compound solutions or compound dilution buffer to the above assay plate. Add 2 μL/well of 300 nM TNKS stock solution (4) to every well in the above assay plate. Centrifuge the assay plate at 2100 rpm for 2 min. Incubate the assay plate at 26° C. for 30 minutes. Add 2 μL/well 3.5 nMEu/50 nM APC solution (5) to every well in the above assay plate. Centrifuge the assay plate at 2100 rpm for 2 min. Incubate the assay plate at 26° C. for 60 min. Read the assay plate immediately at excitation wavelength of 330 nm and emission wavelength of […] in time resolved fluorescence mode.
. Representative compound data for the PARP1 assay is in TABLE 2 (below) Values are in μM.

As a reminder, the IC50 is the midpoint of a concentration-inhibition curve. A high value points to a need for much substance.

T3 sequence (P09874 whole entry, species assumed): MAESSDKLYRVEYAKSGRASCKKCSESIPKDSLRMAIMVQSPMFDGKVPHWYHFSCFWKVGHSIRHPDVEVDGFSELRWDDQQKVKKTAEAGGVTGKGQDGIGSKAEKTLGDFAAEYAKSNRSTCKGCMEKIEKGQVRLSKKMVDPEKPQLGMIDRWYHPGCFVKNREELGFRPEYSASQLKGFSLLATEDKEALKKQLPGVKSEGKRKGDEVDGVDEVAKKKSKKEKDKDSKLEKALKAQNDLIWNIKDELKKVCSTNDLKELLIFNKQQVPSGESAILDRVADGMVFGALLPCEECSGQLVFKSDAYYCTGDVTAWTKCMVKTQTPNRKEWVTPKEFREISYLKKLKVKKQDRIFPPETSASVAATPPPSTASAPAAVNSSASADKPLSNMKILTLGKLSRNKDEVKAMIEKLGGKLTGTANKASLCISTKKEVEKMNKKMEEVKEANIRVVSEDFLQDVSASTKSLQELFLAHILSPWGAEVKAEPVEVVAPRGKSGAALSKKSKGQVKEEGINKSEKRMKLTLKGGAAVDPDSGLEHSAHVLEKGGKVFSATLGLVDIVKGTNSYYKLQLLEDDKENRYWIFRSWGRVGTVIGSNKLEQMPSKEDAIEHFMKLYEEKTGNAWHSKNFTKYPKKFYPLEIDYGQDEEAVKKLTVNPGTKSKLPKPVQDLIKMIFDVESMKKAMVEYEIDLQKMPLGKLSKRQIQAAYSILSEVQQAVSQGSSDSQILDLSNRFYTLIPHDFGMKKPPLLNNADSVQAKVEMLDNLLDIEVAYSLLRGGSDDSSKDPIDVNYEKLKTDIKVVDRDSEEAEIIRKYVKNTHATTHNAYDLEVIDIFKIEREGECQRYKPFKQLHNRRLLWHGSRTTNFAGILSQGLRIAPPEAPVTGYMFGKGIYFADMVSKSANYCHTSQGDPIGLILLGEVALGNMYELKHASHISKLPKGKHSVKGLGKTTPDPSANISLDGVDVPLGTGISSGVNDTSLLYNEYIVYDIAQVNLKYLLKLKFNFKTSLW
T1 sequence (O95271 1088-1327): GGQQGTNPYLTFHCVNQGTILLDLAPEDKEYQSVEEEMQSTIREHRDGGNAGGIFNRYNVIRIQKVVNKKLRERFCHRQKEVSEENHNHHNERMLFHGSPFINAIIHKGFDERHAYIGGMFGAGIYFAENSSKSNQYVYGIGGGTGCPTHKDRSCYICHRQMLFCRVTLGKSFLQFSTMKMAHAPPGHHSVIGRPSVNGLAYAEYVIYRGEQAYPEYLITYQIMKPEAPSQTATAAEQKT

For `CC(C)C1Cc2[nH]c(=O)c3ccc(C(N)=O)cc3c2CO1` (racemic) [Compound I-23, rac-2-Isopropyl-9-oxo-1,4,9,10-tetrahydro-2H-3-oxa-10-aza-phenanthrene-6-carboxylic acid amide], the half-inhibitory concentration (IC50) was found to be 88.6 nM at Tankyrase 1 (TNKS1), 243 nM at tankyrase 2 (His6-TNKS2) and 2030 nM in assay [1].

In the case of `CC(C)C1Cc2[nH]c(=O)c3ccc(N)cc3c2CO1` (racemic) [Compound I-24, rac-6-Amino-2-isopropyl-1,2,4,10-tetrahydro-3-oxa-10-aza-phenanthren-9-one], the 50% inhibitory concentration (IC50) at Tankyrase 1 (TNKS1) was 473 nM; on tankyrase 2 (His6-TNKS2), 1300 nM; in assay [1] it was 63.4 nM.

Regarding `CC(=O)N1CCC(C2Cc3[nH]c(=O)c4ccccc4c3CO2)CC1` (racemic) [Compound I-25, rac-2-(1-Acetyl-piperidin-4-yl)-1,2,4,10-tetrahydro-3-oxa-10-aza-phenanthren-9-one], the IC50 at Tankyrase 1 (TNKS1) was determined as 25.5 nM; on tankyrase 2 (His6-TNKS2), 27 nM; in assay [1] it was 67.7 nM.

For the compound `CS(=O)(=O)N1CCC(C2Cc3[nH]c(=O)c4ccccc4c3CO2)CC1` (racemic) [Compound I-26, rac-2-(1-Methanesulfonyl-piperidin-4-yl)-1,2,4,10-tetrahydro-3-oxa-10-aza-phenanthren-9-one], the IC50 on Tankyrase 1 (TNKS1) came out at 48.2 nM; at tankyrase 2 (His6-TNKS2), 55.4 nM; in assay [1] it was 98.7 nM.

In the case of `CC(C)C1Cc2[nH]c(=O)c3ccc(Cl)cc3c2CO1` (racemic) [Compound I-27, rac-6-Chloro-2-isopropyl-1,2,4,10-tetrahydro-3-oxa-10-aza-phenanthren-9-one], the IC50 on Tankyrase 1 (TNKS1) turned out to be 39.1 nM; on tankyrase 2 (His6-TNKS2), 53.5 nM; in assay [1] it was 197 nM.

For `CC(C)C1Cc2[nH]c(=O)c3ccsc3c2CO1` (racemic) [Compound I-28, rac-7-Isopropyl-5,6,7,9-tetrahydro-8-oxa-1-thia-5-aza-cyclopenta[a]naphthalen-4-one], the half-maximal inhibitory concentration (IC50) at Tankyrase 1 (TNKS1) was determined as 81.8 nM; on tankyrase 2 (His6-TNKS2) it was 177 nM; in assay [1], 1920 nM.

Regarding `CC(C)(COCc1ccccc1)C1Cc2[nH]c(=O)c3ccccc3c2CO1` (racemic) [Compound I-29, rac-2-(2-Benzyloxy-1,1-dimethyl-ethyl)-1,2,4,10-tetrahydro-3-oxa-10-aza-phenanthren-9-one], the IC50 at Tankyrase 1 (TNKS1) turned out to be 67.2 nM; at tankyrase 2 (His6-TNKS2) it was 113 nM; in assay [1] it was 126 nM.

Turning to `O=c1[nH]c2c(c3cnccc13)COC(C1CCCC1)C2` (racemic) [Compound I-31, rac-7-Cyclopentyl-5,7,8,9-tetrahydro-6-oxa-3,9-diaza-phenanthren-10-one], the IC50 was 70.8 nM on Tankyrase 1 (TNKS1), 89.1 nM at tankyrase 2 (His6-TNKS2) and 1790 nM in assay [1].

On to `CC(C)OC(=O)N1CCC(C2Cc3[nH]c(=O)c4ccccc4c3CO2)CC1` (racemic) [Compound I-32, rac-4-(9-Oxo-1,4,9,10-tetrahydro-2H-3-oxa-10-aza-phenanthren-2-yl)-piperidine-1-carboxylic acid isopropyl ester], for which the IC50 amounted to 30.8 nM on Tankyrase 1 (TNKS1), 40.5 nM at tankyrase 2 (His6-TNKS2) and 81.8 nM in assay [1].

Consider `O=C(C1CC1)N1CCC(C2Cc3[nH]c(=O)c4ccccc4c3CO2)CC1` (racemic) [Compound I-33, rac-2-(1-Cyclopropanecarbonyl-piperidin-4-yl)-1,2,4,10-tetrahydro-3-oxa-10-aza-phenanthren-9-one], for which the IC50 at Tankyrase 1 (TNKS1) was 36.5 nM; at tankyrase 2 (His6-TNKS2), 52 nM; in assay [1], 94.8 nM.

With `CC(C)(C)C1Cc2[nH]c(=O)c3ccncc3c2CO1` (racemic) [Compound I-34, rac-7-tert-Butyl-4a,5,7,8,9,10a-hexahydro-6-oxa-3,9-diaza-phenanthren-10-one], the IC50 on Tankyrase 1 (TNKS1) amounted to 84.9 nM; at tankyrase 2 (His6-TNKS2), 183 nM; in assay [1], 3470 nM.

With `CC(C)C1Cc2[nH]c(=O)c3ccc(C4CC4)cc3c2CO1` (racemic) [Compound I-38, rac-6-Cyclopropyl-2-isopropyl-1,2,4,10-tetrahydro-3-oxa-10-aza-phenanthren-9-one], the IC50 on Tankyrase 1 (TNKS1) amounted to 91 nM; on tankyrase 2 (His6-TNKS2), 196 nM; in assay [1] it was 18700 nM.

Regarding `CC(C)(C)C1Cc2[nH]c(=O)c3sccc3c2CO1` (racemic) [Compound I-40, rac-7-tert-Butyl-5,6,7,9-tetrahydro-8-oxa-3-thia-5-aza-cyclopenta[a]naphthalen-4-one], the results for the IC50 (at Tankyrase 1 (TNKS1); on tankyrase 2 (His6-TNKS2); in assay [1]) were 32.6 nM, 35.5 nM and 222 nM, respectively.

As for `Cc1cccc2c(=O)[nH]c3c(c12)COC(C(C)(C)C)C3` (racemic) [Compound I-41, rac-2-tert-Butyl-5-methyl-1,2,4,10-tetrahydro-3-oxa-10-aza-phenanthren-9-one], the IC50 on Tankyrase 1 (TNKS1) is 21.2 nM; at tankyrase 2 (His6-TNKS2), 26 nM; in assay [1] it was 46.9 nM.

For `Cn1ncc2c(=O)[nH]c3c(c21)COC(C(C)(C)C)C3` (racemic) [Compound I-42, rac-7-tert-Butyl-1-methyl-5,6,7,9-tetrahydro-1H-8-oxa-1,2,5-triaza-cyclopenta[a]naphthalen-4-one], the IC50 on Tankyrase 1 (TNKS1) is 60.9 nM; on tankyrase 2 (His6-TNKS2), 87.7 nM; in assay [1] it was 2100 nM.

As to `CC(C)(C)C1Cc2[nH]c(=O)c3cnccc3c2CO1` (racemic) [Compound I-43, rac-7-tert-Butyl-5,7,8,9-tetrahydro-6-oxa-2,9-diaza-phenanthren-10-one], the figures for the IC50 (at Tankyrase 1 (TNKS1); at tankyrase 2 (His6-TNKS2); in assay [1]) were 43.9 nM, 49 nM and 876 nM, respectively.

Consider `CC1(C(=O)N2CCC(C3Cc4[nH]c(=O)c5ccccc5c4CO3)CC2)CC1` (racemic) [Compound I-46, rac-2-[1-(1-Methyl-cyclopropanecarbonyl)-piperidin-4-yl]-1,2,4,10-tetrahydro-3-oxa-10-aza-phenanthren-9-one], for which the IC50 at Tankyrase 1 (TNKS1) was found to be 33.2 nM; at tankyrase 2 (His6-TNKS2), 44.3 nM; in assay [1], 87.1 nM.

Take `O=c1[nH]c2c(c3ccccc13)COC(C1CCOCC1)C2` (racemic) [Compound I-47, rac-2-(Tetrahydro-pyran-4-yl)-1,2,4,10-tetrahydro-3-oxa-10-aza-phenanthren-9-one]: the IC50 on Tankyrase 1 (TNKS1) was 32.4 nM; on tankyrase 2 (His6-TNKS2), 36.8 nM; in assay [1], 63.6 nM.
